Data as given in the supplement of paper PMC10307832.

Tests used:
Test in all cases: relative viability (nuclei count vs DMSO), 5 days (fraction); higher = more cells survive
UMC-11 = tested on: UMC-11
Summary of the method: (§1)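 Each reported value is a median over duplicate plates. It expresses relative viability: treated-well nuclei count divided by vehicle-well nuclei count. Lung cancer cell lines in 1536-well plates were dosed by pin tool a day after seeding, alone with one drug or with a fixed anchor-drug dose plus five library-drug doses (not always all listed) in √10 steps, and nuclei were counted after 5 days.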

LU99A = tested on: LU99A
Summary of the method: as §1

COR-L23 = tested on: COR-L23
Summary of the method: as §1

HOP-62 = tested on: HOP-62
Summary of the method: as §1

NCI-H1355 = tested on: NCI-H1355
Summary of the method: as §1

NCI-H838 = tested on: NCI-H838
Summary of the method: as §1

ABC-1 = tested on: ABC-1
Summary of the method: as §1

NCI-H1993 = tested on: NCI-H1993
Summary of the method: as §1

LC-2-ad = tested on: LC-2-ad
Summary of the method: as §1

HARA = tested on: HARA
Summary of the method: as §1

NCI-H2347 = tested on: NCI-H2347
Summary of the method: as §1

NCI-H650 = tested on: NCI-H650
Summary of the method: as §1

NCI-H2126 = tested on: NCI-H2126
Summary of the method: as §1

PC-14 = tested on: PC-14
Summary of the method: as §1

NCI-H1651 = tested on: NCI-H1651
Summary of the method: as §1

NCI-H2023 = tested on: NCI-H2023
Summary of the method: as §1

HCC-15 = tested on: HCC-15
Summary of the method: as §1

NCI-H1915 = tested on: NCI-H1915
Summary of the method: as §1

HCC-44 = tested on: HCC-44
Summary of the method: as §1

SW 1573 = tested on: SW 1573
Summary of the method: as §1

EPLC-272H = tested on: EPLC-272H
Summary of the method: as §1

NCI-H2085 = tested on: NCI-H2085
Summary of the method: as §1

For `Cc1sc2c(c1C)C(c1ccc(Cl)cc1)=N[C@@H](CC(=O)OC(C)(C)C)c1nnc(C)n1-2` [JQ1] + COc1cccc2cc(-c3nc([C@H]4CC[C@H](C(=O)O)CC4)n4ncnc(N)c34)[nH]c12 [OSI-027] (partner 0.5 µM), the relative viability (UMC-11; first compound 0.04 µM) was 0.396, the relative viability (UMC-11; first compound 0.1265 µM) was 0.399 and the relative viability (UMC-11; first compound 0.4 µM) was 0.258. It also gave a relative viability (UMC-11; first compound 1.265 µM) of 0.192, a relative viability (UMC-11; first compound 4 µM) of 0.182 and a relative viability (LU99A; first compound 0.04 µM) of 0.299. For the same compound, the relative viability (LU99A; first compound 0.1265 µM) was 0.268, the relative viability (LU99A; first compound 0.4 µM) was 0.316 and the relative viability (LU99A; first compound 1.265 µM) was 0.234. It also gave a relative viability (LU99A; first compound 4 µM) of 0.209, a relative viability (COR-L23; first compound 0.04 µM) of 0.861 and a relative viability (COR-L23; first compound 0.1265 µM) of 0.662. For the same compound, the relative viability (COR-L23; first compound 0.4 µM) was 0.699, the relative viability (COR-L23; first compound 1.265 µM) was 0.293 and the relative viability (COR-L23; first compound 4 µM) was 0.46. For the same compound, the relative viability (HOP-62; first compound 0.04 µM) was 0.826, the relative viability (HOP-62; first compound 0.1265 µM) was 0.613 and the relative viability (HOP-62; first compound 0.4 µM) was 0.45. For the same compound, the relative viability (HOP-62; first compound 1.265 µM) was 0.189, the relative viability (HOP-62; first compound 4 µM) was 0.149 and the relative viability (NCI-H1355; first compound 0.04 µM) was 0.429. For the same compound, the relative viability (NCI-H1355; first compound 0.1265 µM) was 0.374, the relative viability (NCI-H1355; first compound 0.4 µM) was 0.42 and the relative viability (NCI-H1355; first compound 1.265 µM) was 0.25. The relative viability (NCI-H1355; first compound 4 µM) was 0.253, the relative viability (NCI-H838; first compound 0.04 µM) was 0.379 and the relative viability (NCI-H838; first compound 0.1265 µM) was 0.369. For the same compound, the relative viability (NCI-H838; first compound 0.4 µM) was 0.433, the relative viability (NCI-H838; first compound 1.265 µM) was 0.251 and the relative viability (NCI-H838; first compound 4 µM) was 0.21. The relative viability (ABC-1; first compound 0.04 µM) was 0.452, the relative viability (ABC-1; first compound 0.1265 µM) was 0.352 and the relative viability (ABC-1; first compound 0.4 µM) was 0.322. It also gave a relative viability (ABC-1; first compound 1.265 µM) of 0.187, a relative viability (ABC-1; first compound 4 µM) of 0.212 and a relative viability (NCI-H1993; first compound 0.04 µM) of 0.511. The relative viability (NCI-H1993; first compound 0.1265 µM) was 0.608, the relative viability (NCI-H1993; first compound 0.4 µM) was 0.623 and the relative viability (NCI-H1993; first compound 1.265 µM) was 0.537. The relative viability (NCI-H1993; first compound 4 µM) was 0.538, the relative viability (LC-2-ad; first compound 0.04 µM) was 0.77 and the relative viability (LC-2-ad; first compound 0.1265 µM) was 0.543. For the same compound, the relative viability (LC-2-ad; first compound 0.4 µM) was 0.62, the relative viability (LC-2-ad; first compound 1.265 µM) was 0.366 and the relative viability (LC-2-ad; first compound 4 µM) was 0.302. For the same compound, the relative viability (HARA; first compound 0.04 µM) was 0.418, the relative viability (HARA; first compound 0.1265 µM) was 0.341 and the relative viability (HARA; first compound 0.4 µM) was 0.282. For the same compound, the relative viability (HARA; first compound 1.265 µM) was 0.11, the relative viability (HARA; first compound 4 µM) was 0.141 and the relative viability (NCI-H2347; first compound 0.04 µM) was 0.328. It also gave a relative viability (NCI-H2347; first compound 0.1265 µM) of 0.536, a relative viability (NCI-H2347; first compound 0.4 µM) of 0.305 and a relative viability (NCI-H2347; first compound 1.265 µM) of 0.346. For the same compound, the relative viability (NCI-H2347; first compound 4 µM) was 0.31, the relative viability (NCI-H650; first compound 0.04 µM) was 0.584 and the relative viability (NCI-H650; first compound 0.1265 µM) was 0.41. The relative viability (NCI-H650; first compound 0.4 µM) was 0.415, the relative viability (NCI-H650; first compound 1.265 µM) was 0.25 and the relative viability (NCI-H650; first compound 4 µM) was 0.192. It also gave a relative viability (NCI-H2126; first compound 0.04 µM) of 0.712, a relative viability (NCI-H2126; first compound 0.1265 µM) of 0.72 and a relative viability (NCI-H2126; first compound 0.4 µM) of 0.739. For the same compound, the relative viability (NCI-H2126; first compound 1.265 µM) was 0.552, the relative viability (NCI-H2126; first compound 4 µM) was 0.431 and the relative viability (PC-14; first compound 0.04 µM) was 0.713. The relative viability (PC-14; first compound 0.1265 µM) was 0.638, the relative viability (PC-14; first compound 0.4 µM) was 0.514 and the relative viability (PC-14; first compound 1.265 µM) was 0.311. For the same compound, the relative viability (PC-14; first compound 4 µM) was 0.343, the relative viability (NCI-H1651; first compound 0.04 µM) was 0.624 and the relative viability (NCI-H1651; first compound 0.1265 µM) was 0.638. The relative viability (NCI-H1651; first compound 0.4 µM) was 0.591, the relative viability (NCI-H1651; first compound 1.265 µM) was 0.391 and the relative viability (NCI-H1651; first compound 4 µM) was 0.407. The relative viability (NCI-H2023; first compound 0.04 µM) was 0.362, the relative viability (NCI-H2023; first compound 0.1265 µM) was 0.377 and the relative viability (NCI-H2023; first compound 0.4 µM) was 0.262. For the same compound, the relative viability (NCI-H2023; first compound 1.265 µM) was 0.142, the relative viability (NCI-H2023; first compound 4 µM) was 0.148 and the relative viability (HCC-15; first compound 0.04 µM) was 0.693. For the same compound, the relative viability (HCC-15; first compound 0.4 µM) was 0.593, the relative viability (HCC-15; first compound 1.265 µM) was 0.347 and the relative viability (HCC-15; first compound 4 µM) was 0.315. For the same compound, the relative viability (NCI-H1915; first compound 0.04 µM) was 0.609, the relative viability (NCI-H1915; first compound 0.1265 µM) was 0.602 and the relative viability (NCI-H1915; first compound 0.4 µM) was 0.59. The relative viability (NCI-H1915; first compound 1.265 µM) was 0.263, the relative viability (NCI-H1915; first compound 4 µM) was 0.217 and the relative viability (HCC-44; first compound 0.04 µM) was 0.477. It also gave a relative viability (HCC-44; first compound 0.1265 µM) of 0.293, a relative viability (HCC-44; first compound 0.4 µM) of 0.484 and a relative viability (HCC-44; first compound 1.265 µM) of 0.288. It also gave a relative viability (HCC-44; first compound 4 µM) of 0.214, a relative viability (SW 1573; first compound 0.04 µM) of 0.511 and a relative viability (SW 1573; first compound 0.1265 µM) of 0.475. For the same compound, the relative viability (SW 1573; first compound 0.4 µM) was 0.371, the relative viability (SW 1573; first compound 1.265 µM) was 0.229 and the relative viability (SW 1573; first compound 4 µM) was 0.233. For the same compound, the relative viability (EPLC-272H; first compound 0.04 µM) was 0.26, the relative viability (EPLC-272H; first compound 0.1265 µM) was 0.336 and the relative viability (EPLC-272H; first compound 0.4 µM) was 0.275. For the same compound, the relative viability (EPLC-272H; first compound 1.265 µM) was 0.237, the relative viability (EPLC-272H; first compound 4 µM) was 0.248 and the relative viability (NCI-H2085; first compound 0.04 µM) was 0.763. The relative viability (NCI-H2085; first compound 0.1265 µM) was 0.519, the relative viability (NCI-H2085; first compound 0.4 µM) was 0.574 and the relative viability (NCI-H2085; first compound 1.265 µM) was 0.368. For the same compound, the relative viability (NCI-H2085; first compound 4 µM) was 0.323.
